From patent US11306087B2, “Inhibitors of KRAS G12C and methods of using the same” (Amgen Inc., priority 2017, dated 2022)

Key:
[1] = molecular target: GDP-bound KRAS protein (aa 1-169), containing both G12C and C118A amino acid substitutions (Homo sapiens (Human), UniProt P01116, C118A/G12C); experiment: Coupled Nucleotide Exchange Assay; assay type: biochemical; details: 5 min compound pre-incubation; inhibition of SOS-mediated nucleotide exchange; AlphaScreen
Procedure: For compounds in Table 2, the following assay conditions were employed: Coupled Nucleotide Exchange Assay: Purified GDP-bound KRAS protein (aa 1-169), containing both G12C and C118A amino acid substitutions and an N-terminal His-tag, was pre-incubated with a compound dose-response titration for 5 min in assay buffer (25 mM HEPES pH 7.4, 10 mM MgCl2, and 0.01% Triton X-100). Following compound pre-incubation, purified SOS protein (aa 564-1049) and GTP (Roche 10106399001) were added to the assay wells and incubated for an additional 30 min. To determine the extent of inhibition of SOS-mediated nucleotide exchange, purified GST-tagged cRAF (aa 1-149), nickel chelate AlphaLISA acceptor beads (PerkinElmer AL108R), and AlphaScreen glutathione donor beads (PerkinElmer 6765302) were added to the assay wells and incubated for 5 minutes. The assay plates were then read on a PerkinElmer EnVision Multilabel Reader, using AlphaScreen® technology, and data were analyzed using a 4-parameter logistic model to calculate IC50 values.

[2] = system: Phosphorylation of ERK1/2 in MIA PaCa-2 cells; experiment: Phospho-ERK1/2 MSD Assay; assay type: cell-based; details: Homo sapiens, 2 hours compound treatment, 10 ng/mL EGF for 10 min, read-out: p-ERK IC50 (MIA PaCa-2)
Procedure: Phospho-ERK1/2 MSD Assay: MIA PaCa-2 (ATCC® CRL-1420™) and A549 (ATCC® CCL-185™) cells were cultured in RPMI 1640 Medium (ThermoFisher Scientific 11875093) containing 10% fetal bovine serum (ThermoFisher Scientific 16000044) and 1× penicillin-streptomycin-glutamine (ThermoFisher Scientific 10378016). Sixteen hours prior to compound treatment, MIA PaCa-2 or A549 cells were seeded in 96-well cell culture plates at a density of 25,000 cells/well and incubated at 37° C., 5% CO2. A compound dose-response titration was diluted in growth media, added to appropriate wells of a cell culture plate, and then incubated at 37° C., 5% CO2 for 2 hours. Following compound treatment, cells were stimulated with 10 ng/mL EGF (Roche 11376454001) for 10 min, washed with ice-cold Dulbecco's phosphate-buffered saline, no Ca^2+ or Mg^2+ (ThermoFisher Scientific 14190144), and then lysed in RIPA buffer (50 mM Tris-HCl pH 7.5, 1% Igepal, 0.5% sodium deoxycholate, 150 mM NaCl, and 0.5% sodium dodecyl sulfate) containing protease inhibitors (Roche 4693132001) and phosphatase inhibitors (Roche 4906837001). Phosphorylation of ERK1/2 in compound-treated lysates was assayed using Phospho-ERK1/2 Whole Cell Lysate kits (Meso Scale Discovery K151DWD) according to the manufacturer's protocol. Assay plates were read on a Meso Scale Discovery Sector Imager 6000, and data were analyzed using a 4-parameter logistic model to calculate IC50 values.

Sequence of GDP-bound KRAS protein (aa 1-169), containing both G12C and C118A amino acid substitutions (P01116 other isoform, or with tags, fused parts or gaps G12C/C118A): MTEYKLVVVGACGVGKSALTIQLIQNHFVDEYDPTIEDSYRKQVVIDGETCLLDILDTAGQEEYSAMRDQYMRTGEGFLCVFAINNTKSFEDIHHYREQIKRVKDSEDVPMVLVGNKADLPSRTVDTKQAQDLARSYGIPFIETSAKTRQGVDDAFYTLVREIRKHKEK

C=CC(=O)N1C[C@H](C)N(c2nc(=O)n(-c3c(C(C)C)ncnc3C(C)C)c3nc(-c4c(N)cccc4F)c(Cl)cc23)C[C@H]1C [Example 9, 4-((2S,5R)-4-Acryloyl-2,5-dimethylpiperazin-1-yl)-7-(2-amino-6-fluorophenyl)-6-chloro-1-(4,6-diisopropylpyrimidin-5-yl)pyrido[2,3-d]pyrimidin-2(1H)-one] was tested. Which IC50 [1] did it give?
The IC50 was 0.054 µM.

And the IC50 [2]?
The IC50 was 0.021 µM.

How did the IC50 [1] turn out when C=CC(=O)N1C[C@H](C)N(c2nc(=O)n(-c3c(C(C)C)ncnc3C(C)C)c3nc(-c4c(O)cccc4F)c(F)cc23)C[C@H]1C [Example 11, 4-((2S,5R)-4-Acryloyl-2,5-dimethylpiperazin-1-yl)-1-(4,6-diisopropylpyrimidin-5-yl)-6-fluoro-7-(2-fluoro-6-hydroxyphenyl)pyrido[2,3-d]pyrimidin-2(1H)-one] was run?
Its IC50 is 0.136 µM.

And the IC50 [2]?
Its IC50 is 0.103 µM.

For C=CC(=O)N1C[C@H](C)N(c2nc(=O)n(-c3c(C(C)C)ncnc3C(C)C)c3nc(-c4c(N)cccc4F)c(F)cc23)C[C@H]1C [Example 12, 4-((2S,5R)-4-Acryloyl-2,5-dimethylpiperazin-1-yl)-7-(2-amino-6-fluorophenyl)-1-(4,6-diisopropylpyrimidin-5-yl)-6-fluoropyrido[2,3-d]pyrimidin-2(1H)-one], which IC50 [1] is on record?
Its IC50 is 0.214 µM.

What about the IC50 [2] of the same compound?
Its IC50 is 0.088 µM.

Which results are given for C=CC(=O)N1[C@H](C)CN(c2nc(=O)n(-c3c(C(C)C)ncnc3C(C)C)c3nc(-c4ccccc4F)c(Cl)cc23)C[C@@H]1C [Example 19, 4-(4-Acryloyl-cis-3,5-dimethylpiperazin-1-yl)-6-chloro-1-(4,6-diisopropylpyrimidin-5-yl)-7-(2-fluorophenyl)pyrido[2,3-d]pyrimidin-2(1H)-one]?
IC50 [1]: 0.042 µM; IC50 [2]: 0.061 µM

Which results are given for C=CC(=O)N1[C@H](C)CN(c2nc(=O)n(-c3c(C(C)C)ncnc3C(C)C)c3nc(-c4c(O)cccc4F)c(Cl)cc23)C[C@@H]1C [Example 20, 4-(4-Acryloyl-cis-3,5-dimethylpiperazin-1-yl)-6-chloro-1-(4,6-diisopropylpyrimidin-5-yl)-7-(2-fluoro-6-hydroxyphenyl)pyrido[2,3-d]pyrimidin-2(1H)-one]?
IC50 [1]: 0.034 µM; IC50 [2]: 0.022 µM

Which results are given for C=CC(=O)N1[C@H](C)CN(c2nc(=O)n(-c3c(C(C)C)ncnc3C(C)C)c3nc(-c4c(N)cccc4F)c(Cl)cc23)C[C@@H]1C [Example 21, 4-(4-Acryloyl-cis-3,5-dimethylpiperazin-1-yl)-7-(2-amino-6-fluorophenyl)-6-chloro-1-(4,6-diisopropylpyrimidin-5-yl)pyrido[2,3-d]pyrimidin-2(1H)-one]?
IC50 [1]: 0.092 µM; IC50 [2]: 0.036 µM

What does the source list for C=CC(=O)N1[C@H](C)CN(c2nc(=O)n(-c3c(C(C)C)ncnc3C(C)C)c3nc(-c4c(O)cccc4F)c(F)cc23)C[C@@H]1C [Example 23, 4-(4-Acryloyl-cis-3,5-dimethylpiperazin-1-yl)-1-(4,6-diisopropylpyrimidin-5-yl)-6-fluoro-7-(2-fluoro-6-hydroxyphenyl)pyrido[2,3-d]pyrimidin-2(1H)-one]?
IC50 [1]: 0.173 µM; IC50 [2]: 0.132 µM
